From patent US20090030024A1, “THIAZOLES AS FUNGICIDES” (priority 2005, published 2009)

Tested on: Phytophthora infestans
Assay: whole plant or invertebrate
Format: in vivo
Conditions: in Solanum lycopersicum, 168 h, read-out: efficacy

COCCOC(=O)Nc1ccc(Nc2nccc(-c3sc(N)nc3C)n2)cc1 [Example 69, 2-methoxyethyl-(4-{[4-(2-amino-4-methyl-1,3-thiazol-5-yl)pyrimidin-2-yl]amino}phenyl)carbamate] and Cc1nc(C)c(-c2ccnc(Nc3ccc(F)cc3)n2)s1 [Example 186, 4-(2,4-dimethyl-1,3-thiazol-5-yl)-N-(4-fluorophenyl)pyrimidine-2-amine] cannot be ordered by pest or weed control at 500 ppm: no less than 70% for the first, no less than 70% for the second.

In the case of COc1cc(Nc2nccc(-c3sc(N)nc3C)n2)cc(OC)c1OC [Example 201, 4-(2-amino-4-methyl-1,3-thiazol-5-yl)-N-(3,4,5-trimethoxyphenyl)pyrimidine-2-amine], the pest or weed control at 500 ppm is reported as no less than 70%.

Tested on: not listed separately
Assay: logP determination by retention times (calibration with alkan-2-ones)
Conditions: not given

Point of comparison: COc1cc(Nc2nccc(-c3sc(N)nc3C)n2)cc(OC)c1OC [Example 201, 4-(2-amino-4-methyl-1,3-thiazol-5-yl)-N-(3,4,5-trimethoxyphenyl)pyrimidine-2-amine], chromatographic logP 1.51. Against it:
- COCCOC(=O)Nc1ccc(Nc2nccc(-c3sc(N)nc3C)n2)cc1 [Example 69, 2-methoxyethyl-(4-{[4-(2-amino-4-methyl-1,3-thiazol-5-yl)pyrimidin-2-yl]amino}phenyl)carbamate] — within 0.2 log units, 1.4
- Cc1nc(C)c(-c2ccnc(Nc3ccc(F)cc3)n2)s1 [Example 186, 4-(2,4-dimethyl-1,3-thiazol-5-yl)-N-(4-fluorophenyl)pyrimidine-2-amine] — higher, 2.65

Same assay, conditions: logP, values marked *: HPLC on reversed-phase C 18, 40° C., mobile phase 0.1% aqueous formic acid and acetonitrile, linear gradient 10% to 95% acetonitrile

Point of comparison: Cc1nc(NCCO)sc1-c1ccnc(Nc2ccc(F)cc2)n1 [Example 891, 2-[(5-{2-[(4-fluorophenyl)amino]pyrimidin-4-yl}-4-methyl-1,3-thiazol-2-yl)amino]ethanol], chromatographic logP 1.5. Against it:
- CCc1nc(C)c(-c2ccnc(Nc3ccc(C(=O)OCCOC)cc3)n2)s1 [Example 881, 2-methoxyethyl-4-{[4-(2-ethyl-4-methyl-1,3-thiazol-5-yl)pyrimidin-2-yl]amino}benzoate] — higher, 2.91
- Cc1nc(C(C)(C)C)sc1-c1ccnc(Nc2ccccc2)n1 [Example 882, 4-(2-tert-butyl-4-methyl-1,3-thiazol-5-yl)-N-phenylpyrimidine-2-amine] — higher, 4.24
- Cc1nc(C(C)(C)C)sc1-c1ccnc(Nc2ccc(F)cc2)n1 [Example 883, 4-(2-tert-butyl-4-methyl-1,3-thiazol-5-yl)-N-(4-fluorophenyl)pyrimidine-2-amine] — higher, 4.18
- Cc1nc(C(C)(C)C)sc1-c1ccnc(Nc2cccc(Cl)c2)n1 [Example 884, 4-(2-tert-butyl-4-methyl-1,3-thiazol-5-yl)-N-(3-chlorophenyl)pyrimidine-2-amine] — higher, 4.82
- CC(=O)c1ccc(Nc2nccc(-c3sc(C(C)(C)C)nc3C)n2)cc1 [Example 885, 1-(4-{[4-(2-tert-butyl-4-methyl-1,3-thiazol-5-yl)pyrimidin-2-yl]amino}phenyl)ethanone] — higher, 4.22
- COc1ccc(Nc2nccc(-c3sc(C(C)(C)C)nc3C)n2)cn1 [Example 886, 4-(2-tert-butyl-4-methyl-1,3-thiazol-5-yl)-N-(6-methoxypyridin-3-yl)pyrimidine-2-amine] — higher, 3.42
- CC(=O)c1cccc(Nc2nccc(-c3sc(C(C)(C)C)nc3C)n2)c1 [Example 887, 1-(3-{[4-(2-tert-butyl-4-methyl-1,3-thiazol-5-yl)pyrimidin-2-yl]amino}phenyl)ethanone] — higher, 3.66
- COc1cc(Nc2nccc(-c3sc(C(C)(C)C)nc3C)n2)cc(OC)c1OC [Example 888, 4-(2-tert-butyl-4-methyl-1,3-thiazol-5-yl)-N-(3,4,5-trimethoxyphenyl)pyrimidine-2-amine] — higher, 3.48
- COCC(C)Nc1nc(C)c(-c2ccnc(Nc3ccc4c(c3)C(=O)OC4)n2)s1 (stereo not drawn) [Example 889, 6-[(4-{2-[(2-methoxy-1-methylethyl)amino]-4-methyl-1,3-thiazol-5-yl}pyrimidin-2-yl)amino]-2-benzofuran-1(3H)-one] — within 0.2 log units, 1.65
- COCCNc1nc(C)c(-c2ccnc(Nc3ccc4c(c3)C(=O)OC4)n2)s1 [Example 890, 6-[(4-{2-[(2-methoxyethyl)amino]4-methyl-1,3-thiazol-5-yl}pyrimidin-2-yl)amino]-2-benzofuran-1(3H)-one] — within 0.2 log units, 1.53
- COCCNc1nc(C)c(-c2ccnc(Nc3ccc(C)c(C)c3)n2)s1 [Example 896, N-(3,4-dimethylphenyl)-4-{2-[(2-methoxyethyl)amino]-4-methyl-1,3-thiazol-5-yl}pyrimidine-2-amine] — higher, 2.08
- COCCNc1nc(C)c(-c2ccnc(Nc3ccc(F)c(F)c3)n2)s1 [Example 897, N-(3,4-difluorophenyl)-4-{2-[(2-methoxyethyl)amino]-4-methyl-1,3-thiazol-5-yl}pyrimidine-2-amine] — higher, 2.15
- COCCNc1nc(C)c(-c2ccnc(Nc3ccc(Cl)cc3)n2)s1 [Example 898, N-(4-chlorophenyl)-4-{2-[(2-methoxyethyl)amino]-4-methyl-1,3-thiazol-5-yl}pyrimidine-2-amine] — higher, 2.24
- COCCOc1nc(C)c(-c2ccnc(Nc3ccc(F)cc3)n2)s1 [Example 899, N-(4-fluorophenyl)-4-[2-(2-methoxyethoxy)-4-methyl-1,3-thiazol-5-yl]pyrimidine-2-amine] — higher, 3.12
- COCCOc1nc(C)c(-c2ccnc(Nc3ccccc3)n2)s1 [Example 901, 4-[2-(2-methoxyethoxy)-4-methyl-1,3-thiazol-5-yl]-N-phenylpyrimidine-2-amine] — higher, 3.01
- CCc1nc(C)c(-c2nc(Nc3ccccc3)ncc2Br)s1 [Example 902, 5-bromo-4-(2-ethyl-4-methyl-1,3-thiazol-5-yl)-N-phenylpyrimidine-2-amine] — higher, 3.82
- Cc1nc(C(C)C)sc1-c1nc(Nc2ccccc2)ncc1Cl [Example 903, 5-chloro-4-(2-isopropyl-4-methyl-1,3-thiazol-5-yl)-N-phenylpyrimidine-2-amine] — higher, 4.27
- Cc1nc(C(C)C)sc1-c1nc(Nc2ccccc2)ncc1Br [Example 904, 5-bromo-4-(2-isopropyl-4-methyl-1,3-thiazol-5-yl)-N-phenylpyrimidine-2-amine] — higher, 4.32
- CCc1nc(C)c(-c2nc(Nc3cc(OC)c(OC)c(OC)c3)ncc2Br)s1 [Example 905, 5-bromo-4-(2-ethyl-4-methyl-1,3-thiazol-5-yl)-N-(3,4,5-trimethoxyphenyl)pyrimidine-2-amine] — higher, 3.29
- COc1cc(Nc2ncc(Br)c(-c3sc(C)nc3C)n2)cc(OC)c1OC [Example 906, 5-bromo-4-(2,4-dimethyl-1,3-thiazol-5-yl)-N-(3,4,5-trimethoxyphenyl)pyrimidine-2-amine] — higher, 2.85
- CCc1nc(C)c(-c2nc(Nc3cc(OC)c(OC)c(OC)c3)ncc2Cl)s1 [Example 907, 5-chloro-4-(2-ethyl-4-methyl-1,3-thiazol-5-yl)-N-(3,4,5-trimethoxyphenyl)pyrimidine-2-amine] — higher, 3.2
- COc1cc(Nc2ncc(Br)c(-c3sc(C(C)C)nc3C)n2)cc(OC)c1OC [Example 908, 5-bromo-4-(2-isopropyl-4-methyl-1,3-thiazol-5-yl)-N-(3,4,5-trimethoxyphenyl)pyrimidine-2-amine] — higher, 3.65
- Cc1nc(C)c(-c2nc(Nc3ccccc3)ncc2Br)s1 [Example 909, 5-bromo-4-(2,4-dimethyl-1,3-thiazol-5-yl)-N-phenylpyrimidine-2-amine] — higher, 3.3
- COCCOc1nc(C)c(-c2ccnc(Nc3cc(OC)c(OC)c(OC)c3)n2)s1 [Example 910, 4-[2-(2-methoxyethoxy)-4-methyl-1,3-thiazol-5-yl]-N-(3,4,5-trimethoxyphenyl)pyrimidine-2-amine] — higher, 2.53
- COCCOc1nc(C)c(-c2ccnc(Nc3cccc([N+](=O)[O-])c3)n2)s1 [Example 911, 4-[2-(2-methoxyethoxy)-4-methyl-1,3-thiazol-5-yl]-N-(3-nitrophenyl)pyrimidine-2-amine] — higher, 3.08
- COCCOc1nc(C)c(-c2ccnc(Nc3cccc(C(C)=O)c3)n2)s1 [Example 912, 1-[3-({4-[2-(2-methoxyethoxy)-4-methyl-1,3-thiazol-5-yl]pyrimidin-2-yl}amino)phenyl]ethanone] — higher, 2.64
- COCCOc1nc(C)c(-c2ccnc(Nc3cccc(Cl)c3)n2)s1 [Example 913, N-(3-chlorophenyl)-4-[2-(2-methoxyethoxy)-4-methyl-1,3-thiazol-5-yl]pyrimidine-2-amine] — higher, 3.57
- COCCOc1nc(C)c(-c2ccnc(Nc3cccc(OC)c3)n2)s1 [Example 914, 4-[2-(2-methoxyethoxy)-4-methyl-1,3-thiazol-5-yl]-N-(3-methoxyphenyl)pyrimidine-2-amine] — higher, 2.92
- COCCOc1nc(C)c(-c2ccnc(Nc3ccc(OC)nc3)n2)s1 [Example 915, 4-[2-(2-methoxyethoxy)-4-methyl-1,3-thiazol-5-yl]-N-(6-methoxypyridin-3-yl)pyrimidine-2-amine] — higher, 2.34
- COCCOc1nc(C)c(-c2ccnc(Nc3ccc(C(C)=O)cc3)n2)s1 [Example 916, 1-[4-({4-[2-(2-methoxyethoxy)-4-methyl-1,3-thiazol-5-yl]pyrimidin-2-yl}amino)phenyl]ethanone] — higher, 2.58
- COCCOc1nc(C)c(-c2ccnc(Nc3ccc(N4CCCC4=O)cc3)n2)s1 [Example 917, 1-[4-({4-[2-(2-methoxyethoxy)-4-methyl-1,3-thiazol-5-yl]pyrimidin-2-yl}amino)phenyl]pyrrolidin-2-one] — higher, 2.23
- Cc1nc(C(C)C)sc1-c1ccnc(Nc2cccnc2)n1 [Example 919, 4-(2-isopropyl-4-methyl-1,3-thiazol-5-yl)-N-pyridin-3-ylpyrimidine-2-amine] — within 0.2 log units, 1.51
- CCc1nc(C)c(-c2nc(Nc3cccc(Cl)c3)ncc2Br)s1 [Example 920, 5-bromo-N-(3-chlorophenyl)-4-(2-ethyl-4-methyl-1,3-thiazol-5-yl)pyrimidine-2-amine] — higher, 4.36
- CCc1nc(C)c(-c2nc(Nc3ccc(S(=O)(=O)N(C)C)cc3)ncc2Br)s1 [Example 921, 4-{[5-bromo-4-(2-ethyl-4-methyl-1,3-thiazol-5-yl)pyrimidin-2-yl]amino}-N,N-dimethylbenzenesulphonamide] — higher, 3.36
- Cc1nc(C(C)C)sc1-c1nc(Nc2cccc(Cl)c2)ncc1Br [Example 922, 5-bromo-N-(3-chlorophenyl)-4-(2-isopropyl-4-methyl-1,3-thiazol-5-yl)pyrimidine-2-amine] — higher, 4.9
